# Experiments:
# Type in all cases: functional
# Staphylococcus aureus [1] = test: Bactericidal activity against Staphylococcus aureus CMCC (B) 26003 after 1 to 24 hrs by time-kill assay
# Staphylococcus aureus [2] = test: Antibacterial activity against Staphylococcus aureus CMCC (B) 26003 at 160 ug/ml after 24 to 36 hrs by oxford cup assay; details: read-out: DIZ
# Staphylococcus aureus [3] = test: Antibacterial activity against […] Staphylococcus aureus ATCC 29213 after 24 to 48 hrs by agar dilution method
# Staphylococcus aureus [4] = test: Antibacterial activity against […] Staphylococcus aureus ATCC 29213 at 320 ug/ml after 24 to 36 hrs by oxford cup assay; details: read-out: DIZ
# Escherichia coli [5] = test: Antibacterial activity against Escherichia coli CMCC (B) 44102 at 320 ug/ml after 24 to 36 hrs by oxford cup assay; details: read-out: DIZ
# Staphylococcus aureus [6] = test: Antibacterial activity against […] Staphylococcus aureus ATCC 29213 in iv dosed Balb/c mouse systemic infection model assessed as increase in mouse survival after 7 days; details: for ED50: ATCC 29213, iv, 168 h
# Staphylococcus aureus [7] = test: Antibacterial activity against […] Staphylococcus aureus ATCC 33591 at 160 ug/ml after 24 to 36 hrs by oxford cup assay; details: read-out: DIZ
# Bacillus subtilis [8] = test: Antibacterial activity against Bacillus subtilis CMCC (B) 63501 after 24 to 48 hrs by agar dilution method
# Staphylococcus aureus [9] = test: Antibacterial activity against Staphylococcus aureus CMCC (B) 26003 at 320 ug/ml after 24 to 36 hrs by oxford cup assay; details: read-out: DIZ
# Bacillus subtilis [10] = test: Antibacterial activity against Bacillus subtilis CMCC (B) 63501 at 160 ug/ml after 24 to 36 hrs by oxford cup assay; details: read-out: DIZ
# Staphylococcus aureus [11] = test: Antibacterial activity against […] Staphylococcus aureus ATCC 33591 at 320 ug/ml after 24 to 36 hrs by oxford cup assay; details: read-out: DIZ
# Staphylococcus aureus [12] = test: Bactericidal activity against […] Staphylococcus aureus ATCC 29213 after 1 to 24 hrs by time-kill assay
# Staphylococcus aureus [13] = test: Antibacterial activity against […] Staphylococcus aureus ATCC 29213 at 160 ug/ml after 24 to 36 hrs by oxford cup assay; details: read-out: DIZ
# Escherichia coli [14] = test: Antibacterial activity against Escherichia coli CMCC (B) 44102 at 160 ug/ml after 24 to 36 hrs by oxford cup assay; details: read-out: DIZ
# Staphylococcus aureus [15] = test: Bactericidal activity against Staphylococcus aureus CMCC (B) 26003 assessed as bacterial level at MIC after 1 to 24 hrs by time-kill assay
# Staphylococcus aureus [16] = test: Antibacterial activity against Staphylococcus aureus CMCC (B) 26003 after 24 to 48 hrs by agar dilution method
# Bacillus subtilis [17] = test: Antibacterial activity against Bacillus subtilis CMCC (B) 63501 at 320 ug/ml after 24 to 36 hrs by oxford cup assay; details: read-out: DIZ
# Escherichia coli [18] = test: Antibacterial activity against Escherichia coli CMCC (B) 44102 after 24 to 48 hrs by agar dilution method
# Staphylococcus aureus [19] = test: Bactericidal activity against Staphylococcus aureus CMCC (B) 26003 at 6 times MIC after 4 hrs by time-kill assay relative to control
# Staphylococcus aureus [20] = test: Antibacterial activity against […] Staphylococcus aureus ATCC 33591 after 24 to 48 hrs by agar dilution method
# Staphylococcus aureus [21] = test: Ratio of MIC for […] Staphylococcus aureus ATCC 29213 to MIC for Staphylococcus aureus CMCC (B) 26003
Structure (SMILES),zone of inhibition at 160 µg/mL (Staphylococcus aureus [2]) [mm],MIC (Staphylococcus aureus [3]) [µg/mL],zone of inhibition at 320 µg/mL (Staphylococcus aureus [4]) [mm],zone of inhibition at 320 µg/mL (Escherichia coli [5]) [mm],zone of inhibition at 160 µg/mL (Staphylococcus aureus [7]) [mm],MIC (Bacillus subtilis [8]) [µg/mL],zone of inhibition at 320 µg/mL (Staphylococcus aureus [9]) [mm],zone of inhibition at 160 µg/mL (Bacillus subtilis [10]) [mm],zone of inhibition at 320 µg/mL (Staphylococcus aureus [11]) [mm],zone of inhibition at 160 µg/mL (Staphylococcus aureus [13]) [mm],zone of inhibition at 160 µg/mL (Escherichia coli [14]) [mm],MIC (Staphylococcus aureus [16]) [µg/mL],zone of inhibition at 320 µg/mL (Bacillus subtilis [17]) [mm],MIC (Escherichia coli [18]) [µg/mL],MIC (Staphylococcus aureus [20]) [µg/mL],other results
C=C[C@]1(C)C[C@@H](OC(=O)CSCCN(CC)CC)[C@]2(C)[C@H](C)CC[C@]3(CCC(=O)[C@H]32)[C@@H](C)[C@@H]1O [TIAMULIN],26.1,0.25,29.4,13.3,20.2,2,37.9,17.4,33.9,22.9,9.42,0.0625,21.3,4,0.125,Activity (Staphylococcus aureus [1]): Dose-dependent effect; Activity (Staphylococcus aureus [6]): Dose-dependent effect; ED50 (Staphylococcus aureus [6]): 5.94 mg/kg; Activity (Staphylococcus aureus [12]): Dose-dependent effect; Activity (Staphylococcus aureus [15]): 3 - 4 log10CFU/ml; fold change (FC) (Staphylococcus aureus [19]): >6
C=C[C@]1(C)C[C@@H](OC(=O)CSc2nc(N)cc(N)n2)[C@]2(C)[C@H](C)CC[C@]3(CCC(=O)[C@H]32)[C@@H](C)[C@@H]1O,25.8,0.125,33.5,14.2,24.2,2,38.3,17.4,35.8,24.7,11.4,0.0625,21.9,2,0.0625,Activity (Staphylococcus aureus [1]): Dose-dependent effect; Activity (Staphylococcus aureus [6]): Dose-dependent effect; ED50 (Staphylococcus aureus [6]): 4.22 mg/kg; Activity (Staphylococcus aureus [12]): Dose-dependent effect; Activity (Staphylococcus aureus [15]): 3 - 4 log10CFU/ml; Ratio (Staphylococcus aureus [21]): 2; fold change (FC) (Staphylococcus aureus [19]): >6
C=C[C@]1(C)C[C@@H](OC(=O)CSc2nc(N)cc(NC(=O)CN3CCC[C@@H](CO)C3)n2)[C@]2(C)[C@H](C)CC[C@]3(CCC(=O)[C@H]32)[C@@H](C)[C@@H]1O,25.9,0.125,34.4,13.3,25.8,1,38.1,17.7,35.1,26.5,10.3,0.0625,22.2,4,0.125,
C=C[C@]1(C)C[C@@H](OC(=O)CSc2nc(N)cc(NC(=O)CN3CCCC3)n2)[C@]2(C)[C@H](C)CC[C@]3(CCC(=O)[C@H]32)[C@@H](C)[C@@H]1O,22.2,0.5,26.5,13.4,18.3,2,30.4,14.9,24,19.2,10.2,0.125,20,4,0.5,
C=C[C@]1(C)C[C@@H](OC(=O)CSc2nc(N)cc(NC(=O)CN(C)C)n2)[C@]2(C)[C@H](C)CC[C@]3(CCC(=O)[C@H]32)[C@@H](C)[C@@H]1O,21.8,1,25.4,12.1,18,4,34.2,13.9,22.4,18.9,9.55,0.25,17.5,8,0.5,
C=C[C@]1(C)C[C@@H](OC(=O)CSc2nc(N)cc(NC(=O)CN3CCCCC3)n2)[C@]2(C)[C@H](C)CC[C@]3(CCC(=O)[C@H]32)[C@@H](C)[C@@H]1O,23,0.25,24.9,10.3,17.9,4,30.1,15.2,22.8,18.2,8.89,0.25,19.6,8,0.5,
C=C[C@]1(C)C[C@@H](OC(=O)CSc2nc(N)cc(NC(=O)CN3CCC(CCO)CC3)n2)[C@]2(C)[C@H](C)CC[C@]3(CCC(=O)[C@H]32)[C@@H](C)[C@@H]1O,24,1,24.9,12.7,21.6,2,33.6,15.6,32.4,18.3,10.6,0.125,17.3,8,0.5,
C=C[C@]1(C)C[C@@H](OC(=O)CSc2nc(N)cc(NC(=O)CN3CC[C@H](O)C3)n2)[C@]2(C)[C@H](C)CC[C@]3(CCC(=O)[C@H]32)[C@@H](C)[C@@H]1O,22.1,0.125,29.6,10.5,22.7,2,32.7,13.6,33.3,22.1,8.86,0.125,15.8,8,0.25,
C=C[C@]1(C)C[C@@H](OC(=O)CSc2nc(N)cc(NC(=O)CN3CCC(O)CC3)n2)[C@]2(C)[C@H](C)CC[C@]3(CCC(=O)[C@H]32)[C@@H](C)[C@@H]1O,21.1,0.25,30.5,11.4,23.5,2,30.6,13.6,34.4,21,8.54,0.125,16.1,4,0.25,
C=C[C@]1(C)C[C@@H](OC(=O)CSc2nc(N)cc(NC(=O)CN3CCOCC3)n2)[C@]2(C)[C@H](C)CC[C@]3(CCC(=O)[C@H]32)[C@@H](C)[C@@H]1O,24.7,0.25,28,11.9,17.9,2,35.4,14.2,26.8,20.2,9.82,0.125,19.6,4,1,
C=C[C@]1(C)C[C@@H](OC(=O)CSc2nc(N)cc(NC(=O)CN(CC)CC)n2)[C@]2(C)[C@H](C)CC[C@]3(CCC(=O)[C@H]32)[C@@H](C)[C@@H]1O,23.6,0.5,22.3,12,19.9,4,34.2,13.4,25.8,16.4,10.1,0.125,15.7,8,0.25,
